Experimental data reported in patent US12721821B2, “Plant essential oil amino acid composition and preparation method therefor” (COCRYSTAL TECHNOLOGY (JIAXING) CO., LTD, priority 2021, dated 2026).

Experiment: Vapor pressure from thermogravimetric analysis (TGA), kept at 80° C. for 100 minutes
Format: physicochemical
Details: calculated from weight loss rate
Experimental: For thermogravimetric analysis (TGA) method, instrument model: Netzsch TG 209F3 thermogravimetric analyzer detection, temperature: 80° C. for 100 minutes, purge gas: 25 mL/min.
Thymol and/or carvacrol and L-proline and/or sarcosine were added to a ball mill according to the compositions shown in Table 2, and vibrated at a vibrating frequency of 30 Hz for a vibrating time of 20 minutes to obtain the compositions. The compositions were subjected to thermogravimetric analysis (TGA), kept at 80° C. for 100 minutes, and the vapor pressure of thymol and/or carvacrol and the compositions thereof were calculated according to the formula:
[formula] • wherein m is the mass of the sample at time t, −dm/dt is the weight loss rate per unit area, p is the saturated vapor pressure, α is the vaporization constant, T is the absolute temperature, R is the gas constant, and M is the molecule mass of the evaporated substance. Under vacuum condition, α=1. α can be considered as a constant when a protective gas is present.

SMILES	vapor pressure (Pa) at 80° C. [Pa]
Cc1ccc(C(C)C)cc1O [carvacrol]	242
Cc1ccc(C(C)C)c(O)c1 [thymol]	333
